Values of other authors as cited in patent US20160331796A1, “ENRICHED AMARANTHUS BLITOIDES COMPOSITIONS AND USES THEREOF” (priority 2010, published 2016).

Tested on: prostate cancer cell lines, and primary prostate tumor lines

Substance: Vitamin D
- effect on invasion of prostate cancer cells (in vitro): decrease invasion
- expression of α6 and β4 integrins (integrins associated with increased migration and invasion of prostate cancer cells in vitro): decreased expression
- effect on proliferation and differentiation of tumor cell types (several tumor cell types, including prostate cancer cell lines and primary prostate tumor lines): inhibit proliferation and promote differentiation
